Assay results taken from US10822348B2, “Inhibitors of Bruton's tyrosine kinase and methods of their use” (JANSSEN PHARMACEUTICA NV, priority 2015, dated 2020).

Molecular target: unphosphorylated-BTK kinase domain (UP-BTK), GST-tagged human BTK (389-659aa) (Homo sapiens (Human), UniProt Q06187)
Test: BTK kinase Lanthascreen binding assay
Experimental: BTK Kinase Lanthascreen Binding Assay:
A BTK kinase lanthascreen binding assay monitors compound binding to unphosphorylated-BTK kinase domain (UP-BTK), by competing with a fluorescent labeled tracer. […] Data were analyzed using Xlfit™ version 5.3 from ID Business Solutions (Guildford), Microsoft Excel add-in. pIC50 refers to the negative log of the IC50 in molar.

[1] = unphosphorylated-BTK kinase domain, 60 minutes incubation, pIC50 = negative log of the IC50 in molar
[2] = negative log of the IC50 in molar, 60 minutes incubation with 50 nM Tracer 236

Sequence of unphosphorylated-BTK kinase domain (UP-BTK), GST-tagged human BTK (389-659aa) (Q06187 389-659): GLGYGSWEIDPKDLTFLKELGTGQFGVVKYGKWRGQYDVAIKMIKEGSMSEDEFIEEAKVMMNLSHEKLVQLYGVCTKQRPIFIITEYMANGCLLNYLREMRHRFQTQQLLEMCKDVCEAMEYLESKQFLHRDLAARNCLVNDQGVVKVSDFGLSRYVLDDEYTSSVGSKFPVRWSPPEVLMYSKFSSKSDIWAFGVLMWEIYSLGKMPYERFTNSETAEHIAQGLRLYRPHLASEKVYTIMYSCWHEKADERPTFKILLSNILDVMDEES

BTK_I_binding pIC50 [1] | BTK_I_binding pIC50 [2] | Structure (SMILES)
5.3 |  | Cc1cc(OC2CCOCC2)ccc1N1C(=O)Nc2c(C(=O)N[C@@H]3CCCN(C)C3)sc3nccc1c23 (single isomer, unassigned) [Example 343, (R)-5-(*R)-(2-Methyl-4-((tetrahydro-2H-pyran-4-yl)oxy)phenyl)-N-(1-methylpiperidin-3-yl)-4-oxo-4,5-dihydro-3H-1-thia-3,5,8-triazaacenaphthylene-2-carboxamide]
5.8 |  | CN1CCC[C@@H](NC(=O)c2sc3nccc4c3c2NC(=O)N4c2c(Cl)ccc3c2OCO3)C1 (single isomer, unassigned) [Example 353, (R)-5-(*R)-(5-Chlorobenzo[d][1,3]dioxol-4-yl)-N-(1-methylpiperidin-3-yl)-4-oxo-4,5-dihydro-3H-1-thia-3,5,8-triazaacenaphthylene-2-carboxamide]
7.1 |  | C=C(Cl)C(=O)N1CCC[C@@H](NC(=O)c2sc3nccc4c3c2NC(=O)N4c2ccc(Oc3ccccc3)cc2C)C1 (single isomer, unassigned) [Example 366, (R)—N-(1-(2-Chloroacryloyl)piperidin-3-yl)-5-(*S)-(2-methyl-4-phenoxyphenyl)-4-oxo-4,5-dihydro-3H-1-thia-3,5,8-triazaacenaphthylene-2-carboxamide]
5.9 |  | C=CC(=O)N1CCC[C@@H](NC(=O)c2sc3nccc4c3c2NC(=O)N4c2ccc(OC(C)C)cc2C)C1 (single isomer, unassigned) [Example 417, (R)—N-(1-Acryloylpiperidin-3-yl)-5-(*S)-(4-isopropoxy-2-methylphenyl)-4-oxo-4,5-dihydro-3H-1-thia-3,5,8-triazaacenaphthylene-2-carboxamide]
7.6 |  | CCOC(C)(C)/C=C(\C#N)C(=O)N1CCC[C@@H](NC(=O)c2sc3nccc4c3c2NC(=O)N4c2ccc(Oc3ccccc3)cc2C)C1 (single isomer, unassigned) [Example 487, (R,E)-N-(1-(2-Cyano-4-ethoxy-4-methylpent-2-enoyl)piperidin-3-yl)-5-(*S)-(2-methyl-4-phenoxyphenyl)-4-oxo-4,5-dihydro-3H-1-thia-3,5,8-triazaacenaphthylene-2-carboxamide]
7.8 |  | C=CC(=O)N1CCC[C@@H](NC(=O)c2sc3nccc4c3c2NC(=O)N4c2ccc(OC(F)(F)F)cc2C)C1 (single isomer, unassigned) [Example 505, (R)—N-(1-Acryloylpiperidin-3-yl)-5-(*S)-(2-methyl-4-(trifluoromethoxy)phenyl)-4-oxo-4,5-dihydro-3H-1-thia-3,5,8-triazaacenaphthylene-2-carboxamide]
7.8 |  | Cc1cc(Oc2ccccc2)ccc1N1C(=O)Nc2c(C(=O)N[C@@H]3CCCN(C(=O)/C=C/CN)C3)sc3nccc1c23 (single isomer, unassigned) [Example 511, (R,E)-N-(1-(4-Aminobut-2-enoyl)piperidin-3-yl)-5-(*S)-(2-methyl-4-phenoxyphenyl)-4-oxo-4,5-dihydro-3H-1-thia-3,5,8-triazaacenaphthylene-2-carboxamide]
7.4 |  | Cc1cc(Oc2ccccc2)ccc1N1C(=O)Nc2c(C(=O)N[C@@H]3CCCN(C(=O)/C=C/CNS(C)(=O)=O)C3)sc3nccc1c23 (single isomer, unassigned) [Example 532, (R,E)-5-(*S)-(2-Methyl-4-phenoxyphenyl)-N-(1-(4-(methylsulfonamido)but-2-enoyl)piperidin-3-yl)-4-oxo-4,5-dihydro-3H-1-thia-3,5,8-triazaacenaphthylene-2-carboxamide]
 | 8.3 | C=CC(=O)N1CCC[C@@H](NC(=O)c2sc3nccc4c3c2NC(=O)N4c2ccc(Oc3ccccc3)nc2C)C1 (single isomer, unassigned) [Example 661]

Second part, the molecule before the results:

Structure (SMILES) | BTK_I_binding pIC50 [1] | BTK_I_binding pIC50 [2]
Cc1cc(Oc2ccccc2)ccc1N1C(=O)Nc2c(C(=O)N[C@@H]3CCCN(C(=O)/C=C/CN)C3)sc3nccc1c23 (single isomer, unassigned) [Example 367, (R,E)-N-(1-(4-Aminobut-2-enoyl)piperidin-3-yl)-5-(*R)-(2-methyl-4-phenoxyphenyl)-4-oxo-4,5-dihydro-3H-1-thia-3,5,8-triazaacenaphthylene-2-carboxamide] | 6.2 | 
C=CC(=O)N1CCC[C@@H](NC(=O)c2sc3nccc4c3c2NC(=O)N4c2ccc(OC(C)C)cc2C)C1 (single isomer, unassigned) [Example 418, (R)—N-(1-Acryloylpiperidin-3-yl)-5-(*R)-(4-isopropoxy-2-methylphenyl)-4-oxo-4,5-dihydro-3H-1-thia-3,5,8-triazaacenaphthylene-2-carboxamide] | 7.8 | 
CCOC(C)(C)/C=C(\C#N)C(=O)N1CCC[C@@H](NC(=O)c2sc3nccc4c3c2NC(=O)N4c2ccc(Oc3ccccc3)cc2C)C1 (single isomer, unassigned) [Example 478, (R,*E)-N-(1-(2-Cyano-4-ethoxy-4-methylpent-2-enoyl)piperidin-3-yl)-5-(*S)-(2-methyl-4-phenoxyphenyl)-4-oxo-4,5-dihydro-3H-1-thia-3,5,8-triazaacenaphthylene-2-carboxamide] | 7.8 | 
CCOC(C)(C)/C=C(\C#N)C(=O)N1CCC[C@@H](NC(=O)c2sc3nccc4c3c2NC(=O)N4c2ccc(Oc3ccccc3)cc2C)C1 (single isomer, unassigned) [Example 480, (R,*E)-N-(1-(2-Cyano-4-ethoxy-4-methylpent-2-enoyl)piperidin-3-yl)-5-(*R)-(2-methyl-4-phenoxyphenyl)-4-oxo-4,5-dihydro-3H-1-thia-3,5,8-triazaacenaphthylene-2-carboxamide] | 7.2 | 
Cc1cc(Oc2ccccc2)ccc1N1C(=O)Nc2c(C(=O)N[C@@H]3CCCN(C(=O)/C(C#N)=C/C4CC4)C3)sc3nccc1c23 (single isomer, unassigned) [Example 514, (R,E)-N-(1-(2-Cyano-3-cyclopropylacryloyl)piperidin-3-yl)-5-(*S)-(2-methyl-4-phenoxyphenyl)-4-oxo-4,5-dihydro-3H-1-thia-3,5,8-triazaacenaphthylene-2-carboxamide] | 7.7 | 
C=CC(=O)N1CC[C@H](NC(=O)c2sc3nccc4c3c2NC(=O)N4c2ccc(Oc3ccccc3)cc2C)C1 (single isomer, unassigned) [Example 518, (S)—N-(1-Acryloylpyrrolidin-3-yl)-5-(*S)-(2-methyl-4-phenoxyphenyl)-4-oxo-4,5-dihydro-3H-1-thia-3,5,8-triazaacenaphthylene-2-carboxamide] | 7.6 | 
C=CC(=O)N1CCC[C@@H](NC(=O)c2sc3nccc4c3c2NC(=O)N4c2ccc(OC(F)(F)F)cc2C)C1 (single isomer, unassigned) [Example 624, (R)—N-(1-Acryloylpiperidin-3-yl)-5-(*R)-(2-methyl-4-(trifluoromethoxy)phenyl)-4-oxo-4,5-dihydro-3H-1-thia-3,5,8-triazaacenaphthylene-2-carboxamide] |  | 5.9
C=CC(=O)N1CCC[C@@H](NC(=O)c2sc3nccc4c3c2NC(=O)N4c2cnc(CC(C)C)cc2C)C1 (single isomer, unassigned) [Example 669, (R)—N-(1-Acryloylpiperidin-3-yl)-5-(*S)-(6-isobutyl-4-methylpyridin-3-yl)-4-oxo-4,5-dihydro-3H-1-thia-3,5,8-triazaacenaphthylene-2-carboxamide] |  | 8.1
C=CC(=O)N1CCC[C@@H](NC(=O)c2sc3nccc4c3c2NC(=O)N4c2ccc(OC3CCOCC3)cc2C)C1 (single isomer, unassigned) [Example 675, (R)—N-(1-Acryloylpiperidin-3-yl)-5-(*R)-(2-methyl-4-((tetrahydro-2H-pyran-4-yl)oxy)phenyl)-4-oxo-4,5-dihydro-3H-1-thia-3,5,8-triazaacenaphthylene-2-carboxamide] |  | 7.2
C=CC(=O)N1CCC[C@@H](NC(=O)c2sc3nccc4c3c2NC(=O)N4c2ccc(Oc3ccccc3)nc2C)C1 (single isomer, unassigned) [Example 690, (R)—N-(1-Acryloylpiperidin-3-yl)-5-(*R)-(2-methyl-6-phenoxypyridin-3-yl)-4-oxo-4,5-dihydro-3H-1-thia-3,5,8-triazaacenaphthylene-2-carboxamide] |  | 7.6
C=CC(=O)N1CCC[C@@H](NC(=O)c2sc3nccc4c3c2NC(=O)N4c2cnc(Oc3ccccc3)cc2C)C1 (single isomer, unassigned) [Example 691, (R)—N-(1-Acryloylpiperidin-3-yl)-5-(*R)-(4-methyl-6-phenoxypyridin-3-yl)-4-oxo-4,5-dihydro-3H-1-thia-3,5,8-triazaacenaphthylene-2-carboxamide] |  | 6.0
C=CC(=O)N1CCC[C@@H](NC(=O)c2sc3nccc4c3c2NC(=O)N4c2cnc(OC3CCC3)cc2C)C1 (single isomer, unassigned) [Example 700, (R)—N-(1-Acryloylpiperidin-3-yl)-5-(*R)-(6-cyclobutoxy-4-methylpyridin-3-yl)-4-oxo-4,5-dihydro-3H-1-thia-3,5,8-triazaacenaphthylene-2-carboxamide] |  | 8.1
C=CC(=O)N1CC[C@@H](NC(=O)c2sc3nccc4c3c2NC(=O)N4c2ccc(Oc3ccccc3)nc2C)C1 (single isomer, unassigned) [Example 716, (R)—N-(1-Acryloylpyrrolidin-3-yl)-5-(*S)-(2-methyl-6-phenoxypyridin-3-yl)-4-oxo-4,5-dihydro-3H-1-thia-3,5,8-triazaacenaphthylene-2-carboxamide] |  | 8.0
C=CC(=O)N1CCC[C@@H](NC(=O)c2sc3nccc4c3c2NC(=O)N4c2cnc(CC(C)C)cc2C)C1 (single isomer, unassigned) [Example 722, (R)—N-(1-Acryloylpiperidin-3-yl)-5-(*R)-(6-isobutyl-4-methylpyridin-3-yl)-4-oxo-4,5-dihydro-3H-1-thia-3,5,8-triazaacenaphthylene-2-carboxamide] |  | 6.4
